Laboratory results published in ChEMBL document CHEMBL4418493, “N-hydroxyformamide compounds and compositions comprising them for use as BMP1, TLL1 and/or TLL2 inhibitors” (2018).

What was measured:
[1] = Reduction in PICP levels in human cardiac fibroblasts incubated for 24 to 48 hrs by ELISA; type: functional
[2] = Drug metabolism in heparinized pooled human plasma at pH 7.5 assessed as formation of (S)-2-(2-ethoxy-4-(5-((((R)-2-((R)-1-(N-hydroxyformamido)propyl)heptanamido)methyl) carbamoyl)furan-2-yl)benzamido)succinic acid at 100 to 2000 ng/ml incubated up to 4 or 24 hrs by LC-MS/MS analysis; type: ADME, cell-free; settings: pH 7.5, 24 h
[3] = Drug metabolism in heparinized pooled human plasma at pH 7.5 assessed as formation of (S)-2-(2-(carboxymethoxy)-4-(5-((((R)-2-((R)-1-(N-hydroxyformamido)propyl)heptanamido)methyl)carbamoyl)furan-2-yl)benzamido)succinic acid at 100 to 2000 ng/ml incubated up to 4 or 24 hrs by LC-MS/MS analysis; type: ADME, cell-free; settings: pH 7.5, 24 h

Structure (SMILES)	Drug metabolism [2]	Drug metabolism [3]	IC50 [1] [µM]
CCCCC[C@@H](C(=O)NCNC(=O)c1ccc(-c2ccc(C(=O)N[C@@H](CC(=O)O)C(=O)O)c(OCC)c2)o1)[C@@H](CC)N(C=O)OC(=O)c1ccc2c(c1)OCCO2.N.N	Metabolite_Detected		< 3.98
CCCCC[C@@H](C(=O)NCNC(=O)c1ccc(-c2ccc(C(=O)N[C@@H](CC(=O)O)C(=O)O)c(OCC)c2)o1)[C@@H](CC)N(C=O)OC(=O)C(CC)CC	Metabolite_Detected		< 3.98
CCCCC[C@@H](C(=O)NCNC(=O)c1ccc(-c2ccc(C(=O)N[C@@H](CC(=O)O)C(=O)OCc3oc(=O)oc3C)c(OCC)c2)o1)[C@@H](CC)N(O)C=O	Metabolite_Detected		
CCCCC[C@@H](C(=O)NCNC(=O)c1ccc(-c2ccc(C(=O)N[C@@H](CC(=O)O)C(=O)O)c(OCC)c2)o1)[C@@H](CC)N(C=O)OC(=O)c1ccc(CN2CCOCC2)cc1C	Metabolite_Detected		< 3.98
CCCCC[C@@H](C(=O)NCNC(=O)c1ccc(-c2ccc(C(=O)N[C@@H](CC(=O)O)C(=O)OCOC(=O)C(C)C)c(OCC)c2)o1)[C@@H](CC)N(O)C=O	Metabolite_Detected		< 3.98
CCCCC[C@@H](C(=O)NCNC(=O)c1ccc(-c2ccc(C(=O)N[C@@H](CC(=O)O)C(=O)O)c(OCC(=O)O)c2)o1)[C@@H](CC)N(C=O)OC(=O)NC		Metabolite_Detected	
CCCCC[C@@H](C(=O)NCNC(=O)c1ccc(-c2ccc(C(=O)N[C@@H](CC(=O)O)C(=O)O)c(OCC)c2)o1)[C@@H](CC)N(C=O)OC(=O)c1ccc(N2CCCC2=O)cc1.N.N	Metabolite_Detected		< 3.98
CCCCC[C@@H](C(=O)NCNC(=O)c1ccc(-c2ccc(C(=O)N[C@@H](CC(=O)O)C(=O)O)c(OCC)c2)o1)[C@@H](CC)N(C=O)OC(=O)c1c(C)cccc1OP(=O)(O)O	Metabolite_Detected		
CCCCC[C@@H](C(=O)NCNC(=O)c1ccc(-c2ccc(C(=O)N[C@@H](CC(=O)O)C(=O)O)c(OCC)c2)o1)[C@@H](CC)N(C=O)OC(=O)c1ccc(-n2cccn2)cc1	Metabolite_Detected		< 3.98
CCCCC[C@@H](C(=O)NCNC(=O)c1ccc(-c2ccc(C(=O)N[C@@H](CC(=O)O)C(=O)O)c(OCC)c2)o1)[C@@H](CC)N(C=O)OC(=O)c1ccc(OCCOCCO)cc1	Metabolite_Detected		< 3.98
CCCCC[C@@H](C(=O)NCNC(=O)c1ccc(-c2ccc(C(=O)N[C@@H](CC(=O)O)C(=O)O)c(OCC)c2)o1)[C@@H](CC)N(C=O)OC(=O)C1CCNCC1.O=C(O)C(F)(F)F	Metabolite_Detected		< 3.98
CCCCC[C@@H](C(=O)NCNC(=O)c1ccc(-c2ccc(C(=O)N[C@@H](CC(=O)O)C(=O)O)c(OCC)c2)o1)[C@@H](CC)N(C=O)OC(=O)c1ccc(-n2ccnc2)cc1	Metabolite_Detected		< 3.98
CCCCC[C@@H](C(=O)NCNC(=O)c1ccc(-c2ccc(C(=O)N[C@@H](CC(=O)O)C(=O)Oc3ccccc3)c(OCC)c2)o1)[C@@H](CC)N(O)C=O	Metabolite_Detected		
CCCCC[C@@H](C(=O)NCNC(=O)c1ccc(-c2ccc(C(=O)N[C@@H](CC(=O)O)C(=O)O)c(OCC)c2)o1)[C@@H](CC)N(C=O)OCOC(=O)C(C)(C)C	Metabolite_Detected		< 3.98
CCCCC[C@@H](C(=O)NCNC(=O)c1ccc(-c2ccc(C(=O)N[C@@H](CC(=O)O)C(=O)O)c(OCC(=O)O)c2)o1)[C@@H](CC)N(C=O)OC(=O)C1CC1C (some centres undefined)		Metabolite_Detected	
CCCCC[C@@H](C(=O)NCNC(=O)c1ccc(-c2ccc(C(=O)N[C@@H](CC(=O)O)C(=O)O)c(OCC)c2)o1)[C@@H](CC)N(C=O)OC(=O)c1ccc(CN2CCOCC2)cc1	Metabolite_Detected		< 3.98
CCCCC[C@@H](C(=O)NCNC(=O)c1ccc(-c2ccc(C(=O)N[C@@H](CC(=O)O)C(=O)O)c(OCC)c2)o1)[C@@H](CC)N(C=O)OC(=O)c1ccc(-n2cccc2)cc1.N.N	Metabolite_Detected		
CCCCC[C@@H](C(=O)NCNC(=O)c1ccc(-c2ccc(C(=O)N[C@@H](CC(=O)O)C(=O)O)c(OCC(=O)O)c2)o1)[C@@H](CC)N(C=O)OC(=O)c1ccc(OC)cc1		Metabolite_Detected	
CCCCC[C@@H](C(=O)NCNC(=O)c1ccc(-c2ccc(C(=O)N[C@@H](CC(=O)O)C(=O)O)c(OCC)c2)o1)[C@@H](CC)N(C=O)OC(=O)c1cccc(N2CCCC2)c1.N.N	Metabolite_Detected		< 3.98
CCCCC[C@@H](C(=O)NCNC(=O)c1ccc(-c2ccc(C(=O)N[C@@H](CC(=O)O)C(=O)O)c(OCC(=O)O)c2)o1)[C@@H](CC)N(C=O)OC(=O)c1cccc(C(=O)O)c1		Metabolite_Detected	

Continued, in another order:

Drug metabolism [2]	Drug metabolism [3]	Structure (SMILES)	IC50 [1] [µM]
Metabolite_Detected		CCCCC[C@@H](C(=O)NCNC(=O)c1ccc(-c2ccc(C(=O)N[C@@H](CC(=O)O)C(=O)O)c(OCC)c2)o1)[C@@H](CC)N(C=O)OC(=O)c1ccc(OC)cc1	< 3.98
Metabolite_Detected		CCCCC[C@@H](C(=O)NCNC(=O)c1ccc(-c2ccc(C(=O)N[C@@H](CC(=O)O)C(=O)O)c(OCC)c2)o1)[C@@H](CC)N(C=O)OC(=O)c1cccc(N(C)C)c1	
Metabolite_Detected		CCCCC[C@@H](C(=O)NCNC(=O)c1ccc(-c2ccc(C(=O)N[C@@H](CC(=O)O)C(=O)O)c(OCC)c2)o1)[C@@H](CC)N(C=O)OC(=O)c1c(C)cccc1F	< 3.98
Metabolite_Detected		CCCCC[C@@H](C(=O)NCNC(=O)c1ccc(-c2ccc(C(=O)N[C@@H](CC(=O)O)C(=O)O)c(OCC)c2)o1)[C@@H](CC)N(C=O)OC(=O)c1cccc(NC)c1	
Metabolite_Detected		CCCCC[C@@H](C(=O)NCNC(=O)c1ccc(-c2ccc(C(=O)N[C@@H](CC(=O)O)C(=O)O)c(OCC)c2)o1)[C@@H](CC)N(C=O)OC(=O)c1ccc(OC)cc1C(C)C	
Metabolite_Detected		CCCCC[C@@H](C(=O)NCNC(=O)c1ccc(-c2ccc(C(=O)N[C@@H](CC(=O)O)C(=O)O)c(OCC)c2)o1)[C@@H](CC)N(C=O)OC(=O)c1ccc(NC)cc1	
Metabolite_Detected		CCCCC[C@@H](C(=O)NCNC(=O)c1ccc(-c2ccc(C(=O)N[C@@H](CC(=O)O)C(=O)O)c(OCC)c2)o1)[C@@H](CC)N(C=O)OC(=O)c1ccc(N)cc1	
Metabolite_Detected		CCCCC[C@@H](C(=O)NCNC(=O)c1ccc(-c2ccc(C(=O)N[C@@H](CC(=O)O)C(=O)O)c(OCC)c2)o1)[C@@H](CC)N(C=O)OC(=O)c1ccc([N+](=O)[O-])cc1	< 3.98
Metabolite_Detected		CCCCC[C@@H](C(=O)NCNC(=O)c1ccc(-c2ccc(C(=O)N[C@@H](CC(=O)O)C(=O)O)c(OCC)c2)o1)[C@@H](CC)N(C=O)OC(=O)c1ccc(C(F)(F)F)cc1	< 3.98
Metabolite_Detected		CCCCC[C@@H](C(=O)NCNC(=O)c1ccc(-c2ccc(C(=O)N[C@@H](CC(=O)O)C(=O)O)c(OCC)c2)o1)[C@@H](CC)N(C=O)OC(=O)c1ccc(OC)cc1C.N.N	
Metabolite_Detected		CCCCC[C@@H](C(=O)NCNC(=O)c1ccc(-c2ccc(C(=O)N[C@@H](CC(=O)O)C(=O)O)c(OCC)c2)o1)[C@@H](CC)N(C=O)OC(=O)c1ccc([N+](=O)[O-])cc1C	
Metabolite_Detected		CCCCC[C@@H](C(=O)NCNC(=O)c1ccc(-c2ccc(C(=O)N[C@@H](CC(=O)O)C(=O)O)c(OCC)c2)o1)[C@@H](CC)N(C=O)OC(=O)c1ccc(CN)cc1	
Metabolite_Detected		CCCCC[C@@H](C(=O)NCNC(=O)c1ccc(-c2ccc(C(=O)N[C@@H](CC(=O)O)C(=O)O)c(OCC)c2)o1)[C@@H](CC)N(C=O)OC(=O)NC(C)C	< 3.98
Metabolite_Detected		CCCCC[C@@H](C(=O)NCNC(=O)c1ccc(-c2ccc(C(=O)N[C@@H](CC(=O)O)C(=O)O)c(OCC)c2)o1)[C@@H](CC)N(C=O)OC(=O)c1ccc(OC)c(OC)c1	< 3.98
Metabolite_Detected		CCCCC[C@@H](C(=O)NCNC(=O)c1ccc(-c2ccc(C(=O)N[C@@H](CC(=O)O)C(=O)O)c(OCC)c2)o1)[C@@H](CC)N(C=O)OC(=O)c1ccc2c(c1)N(C)CCO2.N.N	< 3.98
Metabolite_Detected		CCCCC[C@@H](C(=O)NCNC(=O)c1ccc(-c2ccc(C(=O)N[C@@H](CC(=O)O)C(=O)O)c(OCC)c2)o1)[C@@H](CC)N(C=O)OC(=O)c1ccc(F)cc1C(C)C	< 3.98
Metabolite_Detected		CCCCC[C@@H](C(=O)NCNC(=O)c1ccc(-c2ccc(C(=O)N[C@@H](CC(=O)O)C(=O)O)c(OCC)c2)o1)[C@@H](CC)N(C=O)OC(=O)c1ccc(OC)cc1Br	
Metabolite_Detected		CCCCC[C@@H](C(=O)NCNC(=O)c1ccc(-c2ccc(C(=O)N[C@@H](CC(=O)O)C(=O)O)c(OCC)c2)o1)[C@@H](CC)N(C=O)OC(=O)c1ccc(N(C)S(C)(=O)=O)cc1	< 3.98
Metabolite_Detected		CCCCC[C@@H](C(=O)NCNC(=O)c1ccc(-c2ccc(C(=O)N[C@@H](CC(=O)O)C(=O)O)c(OCC)c2)o1)[C@@H](CC)N(C=O)OC(=O)c1cccc(N)c1	
Metabolite_Detected		CCCCC[C@@H](C(=O)NCNC(=O)c1ccc(-c2ccc(C(=O)N[C@@H](CC(=O)O)C(=O)O)c(OCC)c2)o1)[C@@H](CC)N(C=O)OC(=O)Nc1ccccc1	
Metabolite_Detected		CCCCC[C@@H](C(=O)NCNC(=O)c1ccc(-c2ccc(C(=O)N[C@@H](CC(=O)O)C(=O)O)c(OCC)c2)o1)[C@@H](CC)N(C=O)OC(=O)c1ccc(OC)cc1Cl	
Metabolite_Detected		CCCCC[C@@H](C(=O)NCNC(=O)c1ccc(-c2ccc(C(=O)N[C@@H](CC(=O)O)C(=O)O)c(OCC)c2)o1)[C@@H](CC)N(C=O)OC(=O)c1ccc(F)cc1C	< 3.98
